The values that follow come from EP4711356A1, “TETRAHYDROCARBAZOLE DERIVATIVE, PHARMACEUTICAL COMPOSITION, AND USE THEREOF” (Nain Biotech (Hangzhou) Co., Ltd., priority 2023, dated 2024).

As usually defined, the IC50 is the concentration needed to halve the response being measured.

In test [1] the test system is HeLa cells. The experiment in a line: Cell-based pharmacodynamic assay (CellTiter-Glo proliferation inhibition), HeLa. As to conditions: human cervical cancer HeLa cells; 72 hours incubation; CellTiter-Glo luminescence; read-out: IC50 against HeLa cells. An outline of the steps:
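Cells seeded overnight in line-specific media with FBS, then dosed from DMSO stocks (20 mM stock) for 72 h at 37 °C, 5% CO2. Viability by CellTiter-Glo luminescence; inhibition normalised to DMSO and blank wells, IC50 from four-parameter fit.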
(In general: ATP-based viability assays read luminescence as a measure of living cells.)

Test [2] in a line: Cell-based pharmacodynamic assay (CellTiter-Glo proliferation inhibition), tumor cell line panel. As to conditions: Homo sapiens; one range stated for all 22 listed ovarian, liver, lung, melanoma, pancreatic, colorectal, renal, prostate, gastric, tongue, leukemia and rhabdomyosarcoma cell lines. The procedure:
Complete media such as RPMI 1640 (Gibco, A1049101), EMEM (ATCC, 30-2003), DMEM (Gibco, C11995500CP), McCoy's 5A (Gibco, 16600082), and F-12K (ATCC, 30-2004) were prepared by supplementing with varying concentrations of FBS (Biological Industries, 04-002-1A) and 1% Penicillin-Streptomycin (Gibco, 15140122) and was thoroughly mixed. Tumor cell lines including HeLa (ATCC, CCL-2; EMEM + 10% FBS), TOV-21G (Cobioer, CBP60292; 1:1 mixture of MCDB 105 and Medium 199 + 15% FBS), OVCAR-3 (ATCC, HTB-161; RPMI 1640 + 20% FBS + 0.01 mg/ml bovine insulin), SK-OV-3 (ATCC, HTB-77; McCoy's 5A + 10% FBS), A2780 (Cobioer, CBP60283; RPMI 1640 + 10% FBS), OC316 (Cobioer, CBP60620; RPMI 1640 + 10% FBS), HuH-7 (Cobioer, CBP60202; DMEM + 10% FBS), SNU-398 (ATCC, CRL-2233; RPMI 1640 + 10% FBS), NCI-H2286 (ATCC, CRL-5938; RPMI 1640 + 5% FBS), NCI-H82 (ATCC, HTB-175; RPMI 1640 + 10% FBS), A549 (ATCC, CCL-185; F-12K + 10% FBS), SK-MEL-3 (ATCC, HTB-69; McCoy's 5A + 15% FBS), PSN-1 (Cobioer, CBP61215; RPMI 1640 + 10% FBS), LoVo (ATCC, CCL-229; F-12K + 10% FBS), DLD-1 (ATCC, CCL-221; RPMI 1640 + 10% FBS), HCT-15 (ATCC, CCL-225; RPMI 1640 + 10% FBS), A498 (ATCC, HTB-44; EMEM + 10% FBS), LNCaP (ATCC, CRL-1740; RPMI 1640 + 10% FBS), SNU-1 (ATCC, CRL-5971; RPMI 1640 + 10% FBS), SCC-9 (Cobioer, CBP60428; DMEM/F12 (1:1) + 10% FBS + 0.5 mM sodium pyruvate + 400 ng/ml hydrocortisone), SU-DHL-5 (ATCC, CRL-2958; RPMI 1640 + 10% FBS), Toledo (ATCC, CRL-2631; RPMI 1640 + 10% FBS), and SJCRH30 (ATCC, CRL-2061; RPMI 1640 + 10% FBS) were thawed. Cells were passaged approximately twice, and those in good growth condition (typically passages 4-6) were selected for experiments. The medium was aspirated, and the cells were washed once with 0.25% trypsin (Invitrogen, 25200-072). The waste liquid was discarded, and 3 mL of fresh trypsin was added to the culture flask for digestion. […] The plates were placed in an Enspire reader (luminescence measurement time: 0.5 s) to record luminescence results. […]

Test [3] relates to HeLa cell line. The note with it: compared to the control drug ellipticine; Tunbridge et al., 2013; cited from earlier work.

Take `CCOC(=O)c1cccc2[nH]c3c(c12)CCCC3=O` [Compound B16]: the half-maximal inhibitory concentration (IC50) in test [1] was at most 200 nM; in test [2] it was 0.2 to 10 µM.
Take `Cn1ncc(-c2cccc3[nH]c4c(c23)CCCC4=O)n1` [Compound B67]: the IC50 in test [1] is at most 200 nM; in test [2] it was 0.2 to 10 µM.
For `CCCCCC(=O)n1c2c(c3c(C(=O)OCC)cccc31)CCCC2=O` [Compound C05], in that order: at most 200 nM and 0.2 to 10 µM.
As to `Cc1ccc2[nH]c3c(c2c1)CCCC3=NC1(CO)CCC1` [Compound E08], the concentration for half-maximal inhibition (IC50) in test [1] is at most 200 nM.
On the same count and under the same terms, as for `Cc1ccc2[nH]c3c(c2c1)CCCC3=NC1CC(C(N)=O)C1` (stereo not drawn) [Compound E09], the figure is at most 500 nM.
With `Cc1ccc2[nH]c3c(c2c1)CCCC3=NCC(=O)OC(C)(C)C` [Compound E10], the IC50 in test [1] is at most 200 nM.
Same read-out and setting: as for `Cc1ccc2[nH]c3c(c2c1)CCCC3=NCCNCCO` [Compound E11], the figure is at most 200 nM; as for `Cc1ccc2[nH]c3c(c2c1)CCCC3=NC1CCN(C)CC1` [Compound E13], at most 200 nM.
Still for that read-out and setting: as for `Cc1ccc2[nH]c3c(c2c1)CCCC3=NC(CO)CO` [Compound E14], the figure is at most 200 nM.
On to `COC(=O)c1cccc2[nH]c3c(c12)CCCC3=NCC(=O)OC(C)(C)C` [Compound E29], for which, in test [1], the IC50 was at most 200 nM.
Same read-out and setting: as for `COC(=O)c1cccc2[nH]c3c(c12)CCCC3=NCCO` [Compound E30], the figure is at most 200 nM; as for `Cc1ccc2[nH]c3c(c2c1)CCCC3=NCCOCCO` [Compound E31], at most 200 nM; as for `[2H]C([2H])([2H])c1ccc2[nH]c3c(c2c1)CCCC3=NCC(=O)OC(C)(C)C` [Compound E32], at most 200 nM.
For `COc1ccc2[nH]c3c(c2c1)CCCC3=NCC(=O)OC(C)(C)C` [Compound E33], the 50% inhibitory concentration (IC50) in test [1] is at most 500 nM.
Still for that read-out and setting: under `COC(=O)c1ccc2[nH]c3c(c2c1)CCCC3=NCC(=O)OC(C)(C)C` [Compound E34] stands at most 200 nM; under `COc1ccc2[nH]c3c(c2n1)CCCC3=NCC(=O)OC(C)(C)C` [Compound E35], at most 200 nM.
The same measure, in the same setting: under `COC(=O)c1ccc2[nH]c3c(c2c1)CCCC3=NCCO` [Compound E36] stands at most 200 nM; under `COc1ccc2[nH]c3c(c2n1)CCCC3=NCCO` [Compound E37], at most 200 nM; under `Cc1ccc2[nH]c3c(c2c1)CCC/C3=N\[C@@H](Cc1ccccc1)C(=O)OC(C)(C)C` [Compound E38], at most 200 nM.
As for `Cc1ccc2[nH]c3c(c2c1)CCCC3=NC(CC(N)=O)C(=O)OC(C)(C)C` (stereo not drawn) [Compound E39], in test [1], the half-maximal inhibitory concentration (IC50) was at most 200 nM.
Same read-out and setting: under `Cc1ccc2[nH]c3c(c2c1)CCCC3=NC(Cc1ccc(O)cc1)C(=O)OC(C)(C)C` (stereo not drawn) [Compound E40] stands at most 200 nM; under `Cc1ccc2[nH]c3c(c2c1)CCCC3=NC1CCN(CC(F)(F)F)CC1` [Compound E42], at most 200 nM; under `Cc1ccc2[nH]c3c(c2c1)CCCC3=NC1CCN(S(=O)(=O)C(C)C)CC1` [Compound E43], at most 200 nM.
For the compound `Cc1ccc2[nH]c3c(c2c1)CCCC3=NC(C)C(=O)OC(C)(C)C` (stereo not drawn) [Compound E44], the IC50 in test [1] is at most 500 nM.
As for `COCCN=C1CCCc2c1[nH]c1ccc(C)cc21` [Compound E45], the IC50 in test [1] was at most 200 nM.
Turning to `COCCOC1CCC(N=C2CCCc3c2[nH]c2ccc(C)cc32)CC1` (stereo not drawn) [Compound E46], the IC50 in test [1] is at most 200 nM.
On the same count and under the same terms, under `COC(=O)c1cccc2[nH]c3c(c12)CCCC3=NC(C)C` [Compound E47] stands at most 200 nM; under `CCN=C1CCCc2c1[nH]c1cccc(C(=O)OC)c21` [Compound E48], at most 200 nM.
`Cc1ccc2[nH]c3c(c2c1)C(C)CCC3=NCC(=O)OC(C)(C)C` (stereo not drawn) [Compound E49]: the IC50 in test [1] was at most 500 nM.
Take `Cc1ccc2[nH]c3c(c2n1)CCCC3=NCCO` [Compound E50]: the concentration for half-maximal inhibition (IC50) in test [1] was at most 200 nM.
Still for that read-out and setting: under `Cc1cccc2[nH]c3c(c12)CCCC3=NCC(=O)OC(C)(C)C` [Compound E52] stands at most 200 nM.
The same measure, in the same setting: under `Cc1cccc2[nH]c3c(c12)CCCC3=NCCO` [Compound E54] stands at most 200 nM.
On to `Cc1ccc2[nH]c3c(c2c1)CCCC3=NC(CC(=O)OC(C)(C)C)C(=O)OC(C)(C)C` (stereo not drawn) [Compound E55], for which the concentration for half-maximal inhibition (IC50) in test [1] was at most 200 nM.
Turning to `Cc1ccc2[nH]c3c(c2c1)CCCC3=NC(C(=O)OC(C)(C)C)C(C)C` (stereo not drawn) [Compound E56], the IC50 in test [1] was at most 200 nM.
Still for that read-out and setting: as for `CCCCCN=C1CCCc2c1[nH]c1ccc(C)cc21` [Compound E57], the figure is at most 200 nM; as for `COC(=O)c1cccc2[nH]c3c(c12)CCCC3=NCC(C)(C)O` [Compound E61], at most 200 nM; as for `COC(=O)c1cccc2[nH]c3c(c12)CCCC3=NC1CCN(C)CC1` [Compound E62], at most 200 nM.
As to `CCC(CO)N=C1CCCc2c1[nH]c1ccc(C)cc21` (stereo not drawn) [Compound E63], in test [1], the 50% inhibitory concentration (IC50) was at most 500 nM.
As for `CCC(CO)N=C1CCCc2c1[nH]c1ccc(C)cc21` (stereo not drawn) [Compound E64], the half-inhibitory concentration (IC50) in test [1] is at most 500 nM.
Same read-out and setting: as for `Cc1ccc2[nH]c3c(c2c1)CCCC3=NC1CCN(CC(F)(F)F)CC1C` (stereo not drawn) [Compound E65], the figure is at most 200 nM; as for `Cc1ccc2[nH]c3c(c2c1)CCCC3=NC1CCN(S(=O)(=O)C(C)C)CC1C` (stereo not drawn) [Compound E66], at most 200 nM.
Same read-out and setting: as for `Cc1ccc2[nH]c3c(c2c1)CCCC3=NCCNC(=O)OC(C)(C)C` [Compound E67], the figure is at most 200 nM.
The same measure, in the same setting: as for `Cc1ccc2[nH]c3c(c2c1)CCCC3=NCCN` [Compound E68], the figure is at most 200 nM.
In the case of `COC(=O)c1cccc2[nH]c3c(c12)CCCC3=NC(C)C(F)(F)F` (stereo not drawn) [Compound E69], the concentration for half-maximal inhibition (IC50) in test [1] was at most 200 nM.
Regarding `COC(=O)c1cccc2[nH]c3c(c12)CCCC3=NC(C)C(F)(F)F` (stereo not drawn) [Compound E70], the concentration for half-maximal inhibition (IC50) in test [1] is at most 200 nM.
Regarding `CSCCC(N=C1CCCc2c1[nH]c1ccc(C)cc21)C(=O)OC(C)(C)C` (stereo not drawn) [Compound E71], the IC50 in test [1] was at most 200 nM.
On the same count and under the same terms, as for `CN=C1CCCc2c1[nH]c1cccc(C(=O)OC)c21` [Compound E72], the figure is at most 200 nM.
As to `COc1cc2c(c(N)c1OC)C(=O)/C(=C\c1cc(C)c(O)c(C)c1)C2` [indanocine], the “inhibitory activity against the HeLa cell line” value in test [3] is given as “superior inhibitory activity”.
